Results on 59 compounds are retold here after PMC12040169 (PLOS Biology, 2025).

A short description of the series: in vitro. Conditions: human, hela cells, % viability.

As for `c1ccc2nc(N3CCCC3)c(SCCc3cnccn3)nc2c1` [CBK103695], the viability (usually a read-out of living cells in per cent, often relative to untreated cells) at 28.5 h, 10 µM worked out at 106%.
For `CC(=O)NCCSc1nc2ccccc2nc1N1CCCC1` [CBK103696], the viability at 28.5 h, 10 µM came out at 99%.
As to `Clc1cc2nc(SCCc3cnccn3)c(N3CCCC3)nc2cc1Cl` [CBK103700], the viability at 28.5 h, 10 µM was 93.1%.
As for `CC(=O)NCCSc1nc2cc(Cl)c(Cl)cc2nc1N1CCCC1` [CBK103701], the viability at 28.5 h, 10 µM was 96.3%.
For the compound `FC(F)(F)c1ccc(SCc2ccc(Cl)c(Cl)c2)nc1` [CBK103713], the viability at 28.5 h, 10 µM was found to be 95.3%.
Still for that read-out and setting: the figure for `FC(F)(F)c1cccc(SCCc2ccccn2)n1` [CBK103719] is 97.3%; for `FC(F)(F)c1ccnc(SCc2ccc(Cl)c(Cl)c2)n1` [CBK103723] it is 85.6%.
On to `FC(F)(F)c1nc2ccccc2nc1SCc1cccs1` [CBK103728], for which the viability at 28.5 h, 10 µM came to 105%.
Turning to `FC(F)(F)c1nc2ccccc2nc1SCCc1ccccn1` [CBK103731], the viability at 28.5 h, 10 µM was 109%.
On to `FC(F)(F)c1nc2ccccc2nc1SCc1ccccc1` [CBK103732], for which the viability at 28.5 h, 10 µM is 87%.
Consider `COc1ccc2c(c1)C1(Nc3ccccc3C(=O)N1c1ccccc1)C(=O)N2` (centres unmarked) [CBK103747], for which the viability at 28.5 h, 10 µM was 94.1%.
`Cc1cccc(C)c1N1C(=O)c2ccccc2NC12C(=O)Nc1ccc([N+](=O)[O-])cc12` (centres unmarked) [CBK103749]: the viability at 28.5 h, 10 µM was determined as 80.6%.
Still for that read-out and setting: the figure for `CC1SC2(C(=O)Nc3ccccc32)N(c2ccc(Oc3ccccc3)cc2)C1=O` (centres unmarked) [CBK103750] is 92.5%; for `Cc1ccc(N2C(=O)c3ccccc3NC23C(=O)N(C)c2ccc(Br)cc23)cc1` (centres unmarked) [CBK103752] it is 85.2%.
`CC(C)C(=O)NC(C)c1nc(-c2ccncc2)n[nH]1` (centres unmarked) [CBK104021]: the viability at 28.5 h, 10 µM was 113%.
In the case of `O=C(Nc1cccnc1)c1ncoc1-c1ccc(F)cc1` [CBK104357], the viability at 28.5 h, 10 µM came to 106%.
Still for that read-out and setting: the figure for `CCCc1[nH]n(CC(=O)OCC)c(=O)c1Cc1c(Cl)cccc1Cl` [CBK104764] is 94.4%.
As for `CC(C)(C)OC(=O)N1CCC2(CC1)OCc1cc(-c3cccc(OCC(=O)N4CCOCC4)c3)ccc1O2` [CBK105254], the viability at 28.5 h, 10 µM (bulk resorufin, single well) worked out at 96.8%.
Regarding `Brc1ccc2c(c1)COC1(CN3CCC1CC3)O2` (centres unmarked) [CBK105268], the viability at 28.5 h, 10 µM was determined as 107%.
Turning to `CC(=O)NCCSc1nccnc1NC(C)C` [CBK105289], the viability at 28.5 h, 10 µM is 92.8%.
For the compound `CC(=O)NCCSc1cncc(NC(C)C)n1` [CBK105291], the viability at 28.5 h, 10 µM is 84.9%.
Take `CC(C)Nc1cncc(SCCN(C)C)n1` [CBK105292]: the viability at 28.5 h, 10 µM was 90.6%.
As for `CC(=O)NCCSc1ncccc1C(F)(F)F` [CBK105296], the viability at 28.5 h, 10 µM came to 101%.
For the compound `CC(=O)NCCSc1nccc(C(F)(F)F)n1` [CBK105301], the viability at 28.5 h, 10 µM worked out at 102%.
As to `FC(F)(F)c1ccnc(SCCc2ccncc2)n1` [CBK105302], the viability at 28.5 h, 10 µM is 95.3%.
In the case of `CC(=O)NCCSc1nc2ccccc2nc1C(F)(F)F` [CBK105303], the viability at 28.5 h, 10 µM worked out at 89.6%.
As for `Cc1[nH]nc(O)c1Cc1ccccc1F` [CBK105306], the viability at 28.5 h, 10 µM stood at 97.1%.
Turning to `COc1ccc(-c2ccc3c(c2)COC2(CCCNC2)O3)c(OC)c1` (centres unmarked) [CBK105316], the viability at 28.5 h, 10 µM was found to be 103%.
The same measure, in the same setting: the same measure for `Cc1onc(-c2ccccc2)c1NC(=O)Nc1cc2ccccc2c(Br)n1` [CBK105489]: 96.5%; for `O=C(Nc1ccc2c(c1)OCO2)Nc1c(Br)cnc2ncccc12` [CBK105596]: 93.4%.
Take `CC1(OCc2ccccc2)SC(NC2CCCCCC2)=NC1=O` (centres unmarked) [CBK105606]: the viability at 28.5 h, 10 µM worked out at 82.8%.
On to `CC(=O)NCCSc1nccnc1N1CCCC1` [CBK105619], for which the viability at 28.5 h, 10 µM worked out at 91.7%.
On the same count and under the same terms, the figure for `CCCCNC(=O)Nc1ncc(-c2ccc(C#N)cc2)nc1-c1ccc(C(=O)N2CCOCC2)cc1` [CBK105766] is 91.1%; for `Cc1ccccc1NC(=O)Nc1cccc(F)c1` [CBK105831] it is 88.3%.
As for `Cc1ccccc1NC(=O)NCc1ccccc1F` [CBK105832], the viability at 28.5 h, 10 µM is 97.4%.
Turning to `COc1ccc(Cn2nc(-c3nc(C)no3)c3ccccc32)cc1` [CBK105834], the viability at 28.5 h, 10 µM stood at 90.7%.
Take `CCNC(=O)Nc1nn(Cc2ccc(OC)cc2)c2ccccc12` [CBK105837]: the viability at 28.5 h, 10 µM was found to be 94.6%.
Same read-out and setting: the same measure for `COCCNc1nc(-c2ccccc2)ccc1C(=O)Nc1cccc(OC)c1` [CBK105886]: 98.1%; for `COCCNc1nc(-c2cc(C(C)C)ccc2OC)ccc1C(=O)Nc1cccc(OC)c1` [CBK105904]: 96.9%; for `COCCNc1nc(-c2ccccc2)ccc1C(=O)N(C)CCN(C)C` [CBK105913]: 99.3%.
For `COCCNc1nc(-c2ccc(C(C)=O)s2)ccc1C(=O)N(C)CCN(C)C` [CBK105914], the viability at 28.5 h, 10 µM turned out to be 116%.
In the case of `COCCNc1nc(-c2cccc(N(C)C)c2)ccc1C(=O)NCCc1ccccn1` [CBK105938], the viability at 28.5 h, 10 µM came to 90.7%.
In the case of `COCCNc1nc(-c2ccc(N3CCOCC3)cc2)ccc1C(=O)N1CCN(C)CC1` [CBK105943], the viability at 28.5 h, 10 µM is 111%.
On to `COCCNc1nc(-c2ccsc2)ccc1C(=O)N1CCN(C)CC1` [CBK105948], for which the viability at 28.5 h, 10 µM worked out at 112%.
As to `COCCNc1nc(-c2ccccc2OC)ccc1C(=O)N1CCN(C)CC1` [CBK105950], the viability at 28.5 h, 10 µM was found to be 88.7%.
For the compound `COCCNc1nc(-c2ccccc2OC)ccc1C(=O)NCCNC(C)=O` [CBK105974], the viability at 28.5 h, 10 µM amounted to 100%.
Consider `CNC(=O)c1ccc(-c2cc(OC)c(OC)c(OC)c2)nc1NCCOC` [CBK105997], for which the viability at 28.5 h, 10 µM is 94.1%.
The same measure, in the same setting: the same measure for `COc1ccc(-c2ccc(C(=O)N(C)C)c(N3CCN(C(=O)c4ccco4)CC3)n2)cc1` [CBK106020]: 86.3%.
On to `COCCNC(=O)c1ccc(-c2ccccc2)nc1N(C)C` [CBK106049], for which the viability at 28.5 h, 10 µM was found to be 99.8%.
As to `COCCNC(=O)c1ccc(-c2ccc3c(c2)OCO3)nc1N(C)C` [CBK106050], the viability at 28.5 h, 10 µM was 101%.
Take `COCCNC(=O)c1ccc(-c2ccccc2OC)nc1N(C)C` [CBK106052]: the viability at 28.5 h, 10 µM was found to be 92%.
Regarding `COCCNC(=O)c1ccc(-c2cc(C(C)C)ccc2OC)nc1N(C)C` [CBK106061], the viability at 28.5 h, 10 µM is 103%.
For `CN(C)CCN(C)C(=O)c1ccc(-c2cc(C(F)(F)F)cc(C(F)(F)F)c2)nc1N(C)C` [CBK106069], the viability at 28.5 h, 10 µM came out at 97%.
With `COc1ccccc1-c1ccc(C(=O)N(C)CCN(C)C)c(N(C)C)n1` [CBK106075], the viability at 28.5 h, 10 µM is 88.5%.
For `COc1cc(-c2ccc(C(=O)N(C)CCN(C)C)c(N(C)C)n2)cc(OC)c1OC` [CBK106076], the viability at 28.5 h, 10 µM was found to be 109%.
`CN(C)CCN(C)C(=O)c1ccc(-c2ccco2)nc1N(C)C` [CBK106078]: the viability at 28.5 h, 10 µM was 84.1%.
Consider `CN(C)CCN(C)C(=O)c1ccc(-c2cccc(Cl)c2Cl)nc1N(C)C` [CBK106082], for which the viability at 28.5 h, 10 µM worked out at 94.1%.
Turning to `Cc1ccccc1-c1ccc(C(=O)N(C)CCN(C)C)c(N(C)C)n1` [CBK106090], the viability at 28.5 h, 10 µM came to 96%.
For `CN(C)c1nc(-c2cc(C(F)(F)F)cc(C(F)(F)F)c2)ccc1C(=O)NCc1ccco1` [CBK106094], the viability at 28.5 h, 10 µM stood at 89.5%.
